Measured values reported in patent publication US20240279265A1, “CRYSTAL FORMS OF GLUCOSAMINE DERIVATIVE, AND PREPARATION METHOD THEREFOR AND USE THEREOF” (RISEN (SUZHOU) PHARMA TECH CO., LTD., priority 2021, published 2024).

Assays:
Format in all cases: physicochemical
[1] = Thermogravimetric analysis (TGA); settings: heated at 10° C./min under nitrogen
Method: TGA: Samples were analyzed using a TA Instruments TGA Discovery 550. The sample were placed in a tared aluminum tray and automatically weighed, and then the samples were brought to the specified temperatures at a rate of 10° C./min under the protection of nitrogen. In the present invention, the TGA graphs of the above three samples are illustrated in the form of overlay, as shown in FIG. 5.

[2] = Dynamic vapor sorption (DVS); settings: for Mass change (%) - ref, Delay: desorption minus sorption; for DVS weight gain at an RH of 80%: RH 80%, 25±1° C.
Method: DVS: Samples were analyzed using an Intrinsic DVS ([…] UK). The amount of test sample was about 20-30 mg. The temperature of the test chamber was controlled between 25±1° C., the relative humidity was increased from 0% to 90% and then decreased to 0% at a rate of 10%/h, and the quality data was recorded every 20 s.

[3] = Solubility test in water; settings: purified water, room temperature, stirred 2 hours
Method: The excess crystals were dissolved in an amount of purified water in a 4 ml vial at room temperature. The mass of an empty watch glass was recorded as m1.
The suspension was stirred for 2 hours and then filtered through a […] into an empty watch glass, the mass m2 at this point was recorded for this watch glass, and the remaining solid was used for XRPD analysis.
The watch glass containing the filtrate was dried in an oven at 40° C. After drying, the mass m3 was recorded and the solubility data of the substrate could be calculated. The masses of the watch glass as well as the amounts of solid and solution are listed in Table 6, and the experimental results are shown in Table 7 and FIG. 12.

[4] = Solubility in buffer of crystalline form I
Text: The solubility of crystalline form I of the present invention was investigated at room temperature in buffers at pH 1.2, 4.5 and 6.8. The procedure was consistent with that of the solubility test in water. The masses of the watch glass as well as the amounts of solid and solution are listed in Table 8, and the experimental results are shown in Table 9.

[5] = Stability test (crystalline form by XRPD); settings: one week
Method: 10 mg of the solid was placed into a 2 ml glass vial and the vial was transferred to a stability chamber. The experimental conditions were 25° C./92.5% RH, 40° C./75% RH, 60° C., and light, respectively.

Row | Compound | TGA weight loss (wt %) [1] | Mass change (%) - ref, Desorption ([2]; Cycle 1, objective RH 0.0%) | Mass change (%) - ref, Sorption ([2]; Cycle 1, objective RH 0.0%) | Mass change (%) - ref, Desorption ([2]; Cycle 1, objective RH 10.0%) | Mass change (%) - ref, Sorption ([2]; Cycle 1, objective RH 10.0%) | Mass change (%) - ref, Delay ([2]; Cycle 1, objective RH 10.0%) | Mass change (%) - ref, Desorption ([2]; Cycle 1, objective RH 20.0%) | Mass change (%) - ref, Sorption ([2]; Cycle 1, objective RH 20.0%) | Mass change (%) - ref, Delay ([2]; Cycle 1, objective RH 20.0%) | Mass change (%) - ref, Desorption ([2]; Cycle 1, objective RH 30.0%) | Mass change (%) - ref, Sorption ([2]; Cycle 1, objective RH 30.0%) | Mass change (%) - ref, Delay ([2]; Cycle 1, objective RH 30.0%) | Mass change (%) - ref, Desorption ([2]; Cycle 1, objective RH 40.0%) | Mass change (%) - ref, Sorption ([2]; Cycle 1, objective RH 40.0%) | Mass change (%) - ref, Delay ([2]; Cycle 1, objective RH 40.0%) | Mass change (%) - ref, Desorption ([2]; Cycle 1, objective RH 50.0%) | Mass change (%) - ref, Sorption ([2]; Cycle 1, objective RH 50.0%) | Mass change (%) - ref, Delay ([2]; Cycle 1, objective RH 50.0%) | DVS weight gain at an RH of 80% [2] | Solubility in water [3] | also measured
1 | CCCC(=O)N[C@H]1C(O)O[C@H](COC(=O)CCC)[C@@H](OC(=O)CCC)[C@@H]1O (stereo partly drawn) [Crystalline Form I, 2-N-4,6-di-O-tributyryl-D-glucosamine] | 0.344 wt % | −0.022% | 0.001% | 0.082% | 0.092% | −0.010% | 0.160% | 0.175% | −0.015% | 0.270% | 0.276% | −0.006% | 0.409% | 0.417% | −0.007% | 0.498% | 0.502% | −0.003% | 1.037% | 9.02 mg/g | Mass change (%) - ref, Desorption ([2]; Cycle 1, objective RH 60.0%): 0.627%; Mass change (%) - ref, Sorption ([2]; Cycle 1, objective RH 60.0%): 0.626%; Mass change (%) - ref, Delay ([2]; Cycle 1, objective RH 60.0%): 0.001%; Mass change (%) - ref, Desorption ([2]; Cycle 1, objective RH 70.0%): 0.789%; Mass change (%) - ref, Sorption ([2]; Cycle 1, objective RH 70.0%): 0.800%; Mass change (%) - ref, Delay ([2]; Cycle 1, objective RH 70.0%): −0.011%; Mass change (%) - ref, Desorption ([2]; Cycle 1, objective RH 80.0%): 1.031%; Mass change (%) - ref, Sorption ([2]; Cycle 1, objective RH 80.0%): 1.037%; Mass change (%) - ref, Delay ([2]; Cycle 1, objective RH 80.0%): −0.006%; Mass change (%) - ref, Desorption ([2]; Cycle 1, objective RH 90.0%): 1.662%; Mass change (%) - ref, Sorption ([2]; Cycle 1, objective RH 90.0%): 1.662%; Solubility in water ([3]; listed as crystalline form I): 9.08 mg/g; Solubility in buffer ([4]; buffer pH 1.2, room temperature): 4.08 mg/g; Solubility in buffer ([4]; buffer pH 4.5, room temperature): 6.58 mg/g; Solubility in buffer ([4]; buffer pH 6.8, room temperature): 10.02 mg/g; Whether the crystalline form is changed ([5]; 25° C., 92.5% RH): No; Whether the crystalline form is changed ([5]; 40° C., 75% RH): No; Whether the crystalline form is changed ([5]; 60° C.): No; Whether the crystalline form is changed ([5]; Light): No
2 | CCCC(=O)N[C@H]1C(O)O[C@H](COC(=O)CCC)[C@@H](OC(=O)CCC)[C@@H]1O (stereo partly drawn) [API, 2-N-4,6-di-O-tributyryl-D-glucosamine] | 0.966 wt % |  |  |  |  |  |  |  |  |  |  |  |  |  |  |  |  |  | 2.440% | 8.12 mg/g | 
3 | CCCC(=O)N[C@H]1C(O)O[C@H](COC(=O)CCC)[C@@H](OC(=O)CCC)[C@@H]1O (stereo partly drawn) [Crystalline Form II, 2-N-4,6-di-O-tributyryl-D-glucosamine] | None | 0.023% | 0.000% | 0.552% | 0.086% | 0.466% | 0.659% | 0.165% | 0.494% | 0.777% | 0.257% | 0.520% | 0.913% | 0.324% | 0.590% | 0.968% | 0.368% | 0.600% | 0.869% | 9.08 mg/g | Mass change (%) - ref, Desorption ([2]; Cycle 1, objective RH 60.0%): 1.080%; Mass change (%) - ref, Sorption ([2]; Cycle 1, objective RH 60.0%): 0.457%; Mass change (%) - ref, Delay ([2]; Cycle 1, objective RH 60.0%): 0.623%; Solubility in water ([3]; listed as crystalline form II): 9.02 mg/g
